Read-outs that look alike come from different tables or passages of the source.
Tested on: DLD-1 BRCA2−/− cells
Assay: Homologous recombination synthetic lethal inhibition of proliferation, DLD-1 BRCA2-/- (Cell Titre Glo 3D)
Assay type: cell-based
Conditions: Homo sapiens
Text: This assay identifies anti-proliferative effects of POLQ compounds in the homologous recombination deficient colorectal cell line DLD-1 BRCA2−/− over 8-9 population doublings (7 days for DLD-1 and 12 days for DLD-1 BRCA2−/−). DLD1 BRCA2 wt are used as a control to detect cell toxic effects not specific to homologous recombination deficiency.
DLD-1 BRCA2−/− and DLD-1 cells were kept in continuous culture in Assay Medium (RPMI 1640 phenol red free (Sigma R7509) containing 1% GlutaMAX (Gibco 35050) and 10% Foetal Bovine Serum (Gibco 10270-106)). On the day of the assay cells in culture of ˜80-90% confluent were used. Cell monolayers were washed with 10 mL PBS, then removed and added 2 mL TrypLE Express (Gibco 12604). The cells with TrypLE Express were incubated for 5 minutes in cell culture incubator and then the detached cells resuspend in 15 mL Assay Medium. Cells were counted using a ViCell and the cell images were monitored for clumps of cells, ideally they should be single or <3 cell clusters. The cells were diluted to 3,000 cells/mL of DLD-1 BRCA2−/− and 1,500 cells/mL of DLD-1 in Assay Medium and 100 μL added per well of transparent bottomed, black, tissue culture-treated 96-well plates (CoStar, No. 3904) Assay Ready Plates. The Assay Ready Plates contain a 10 point 10 μM to 0.51 nM dose range with three-fold dilutions in DMSO with a final volume of 100 nL. The plates were incubated at 37° C. with 5% C02 for 6 days. On day 6, 100 μL/well of Assay Medium was added to duplicate Assay Ready Plates. 90 μL of culture medium was removed from the cell plates and replenished with the Assay Media and compounds from the duplicate Assay Ready Plates using the Bravo. The plates were further incubated at 37° C. with 5% CO2. On day 7 the plates containing DLD-1 and Cell Titre Glo 3D (Promega G9683) were equilibrated to room temperature, then 60 μL of Cell Titre Glo 3D was added per well and incubated on a shaking platform for 30 min. Plates were read on the Envision measuring luminescence for 1 second per well. On day 12 the plates containing DLD-1 BRCA2−/− cells and Cell Titre Glo 3D (Promega G9683) were equilibrated to room temperature, then 60 μL Cell Titre Glo 3D added per well and incubated on a shaking platform for 30 min. Plates were read on the Envision measuring luminescence for 1 second per well. The data was exported into a suitable software package (such as Genedata) to perform curve fitting analysis. Inhibition of cell proliferation was expressed as an IC5o value and was determined by calculation of the concentration of compound that was required to give a 50% reduction of the average maximum Total Intensity signal.

[1] = DLD-1, first proliferation column (c5), DLD-1 BRCA2-/-, read-out: POLQ PD Prolif Lumin (converted)
[2] = DLD-1, DLD-1 BRCA2-/- proliferation, column head only partly shown, read-out: POLQ PD Prolif Lumin (converted)
[3] = DLD-1, proliferation, luminescence, taken as DLD-1 BRCA2-/-, read-out: POLQ PD Prolif Lumin (converted)
[4] = DLD-1, DLD-1 BRCA2 −/−, mean, read-out: POLQ PD Prolif Lumin BRCA2 −/− mean pIC50 (converted)

Compound `Cc1ccnc(Cn2c(-c3ccc(C4CCNC4=O)cc3Cl)nc3c(OC4(C)CC4)ncnc32)c1` (racemic) [Example T176, 3-(3-chloro-4-(6-(1-methylcyclopropoxy)-9-((4-methylpyridin-2-yl)methyl)-9H-purin-8-yl)phenyl)pyrrolidin-2-one] has an IC50 [1] of 0.794 µM.

Compound `Cc1ccnc(Cn2c(-c3ccc(OC4CCNC4=O)cc3Cl)nc3c(OC4(C)CC4)ncnc32)c1` (racemic) [Example T178, 3-(3-chloro-4-(6-(1-methylcyclopropoxy)-9-((4-methylpyridin-2-yl)methyl)-9H-purin-8-yl)phenoxy)pyrrolidin-2-one] has an IC50 [1] of 0.501 µM.

Compound `CCC(C)c1ccc(-c2nc3c(OC4(C)CC4)ncnc3n2Cc2cc(C)ccn2)c(Cl)c1` (racemic) [Example T232, 8-(4-(sec-butyl)-2-chlorophenyl)-6-(1-methylcyclopropoxy)-9-((4-methylpyridin-2-yl)methyl)-9H-purine] has an IC50 [2] of over 1.58 µM.

Work on `CC(CCOc1ccc(-c2nc3c(OC4(C)CC4)ncnc3n2Cc2cccc(Cl)c2F)c(Cl)c1)C(=O)O` (racemic) [Example T267, 4-(3-chloro-4-(9-(3-chloro-2-fluorobenzyl)-6-(1-methylcyclopropoxy)-9H-purin-8-yl)phenoxy)-2-methylbutanoic acid] yielded an IC50 [2] of 0.398 µM.

With `CC(CCOc1ccc(-c2nc3c(OC4(C)CC4)ncnc3n2Cc2ccc(F)c(Cl)c2)c(Cl)c1)C(=O)O` (racemic) [Example T269, 4-(3-chloro-4-(9-(3-chloro-4-fluorobenzyl)-6-(1-methylcyclopropoxy)-9H-purin-8-yl)phenoxy)-2-methylbutanoic acid] the IC50 [2] was 1.26 µM.

For `CC(CCc1ccc(-c2nc3c(OC4(C)CC4)ncnc3n2Cc2cccc(Cl)c2)c(Cl)c1)C(=O)O` (racemic) [Example T290, 4-(3-chloro-4-(9-(3-chlorobenzyl)-6-(1-methylcyclopropoxy)-9H-purin-8-yl)phenyl)-2-methylbutanoic acid], the IC50 [2] was 0.251 µM.

`CC(CCOc1ccc(-c2nc3c(OC4(C)CC4)ncnc3n2Cc2cccc(Cl)c2)c(Cl)c1)C(=O)O` (racemic) [Example T291, 4-(3-chloro-4-(9-(3-chlorobenzyl)-6-(1-methylcyclopropoxy)-9H-purin-8-yl)phenoxy)-2-methylbutanoic acid] gave an IC50 [2] of 0.158 µM.

With `Cc1ccnc(Cn2c(-c3ccc(N4CCC(O)CC4=O)cc3Cl)nc3c(OC4(C)CC4)ncnc32)c1` (racemic) [Example T321, 1-(3-chloro-4-(6-(1-methylcyclopropoxy)-9-((4-methylpyridin-2-yl)methyl)-9H-purin-8-yl)phenyl)-4-hydroxypiperidin-2-one] the IC50 (DLD-1, first proliferation column (c5), taken as DLD-1 BRCA2-/-, read-out: POLQ PD Prolif Lumin (converted)) was 3.98 µM.

Work on `CC(CCCc1ccc(-c2nc3c(OC4(C)CC4)ncnc3n2Cc2cccc(Cl)c2)c(Cl)c1)C(=O)O` (racemic) [Example T434, 5-(3-chloro-4-(9-(3-chlorobenzyl)-6-(1-methylcyclopropoxy)-9H-purin-8-yl)phenyl)-2-methylpentanoic acid] yielded an IC50 [3] of 0.158 µM.

`CCC(CCOc1ccc(-c2nc3c(OC4(C)CC4)ncnc3n2Cc2cccc(Cl)c2)c(Cl)c1)C(=O)O` (racemic) [Example T441, 4-(3-chloro-4-(9-(3-chlorobenzyl)-6-(1-methylcyclopropoxy)-9H-purin-8-yl)phenoxy)-2-ethylbutanoic acid] gave an IC50 [3] of 0.158 µM.

Work on `COc1cccc(Cn2c(-c3ccc(OCCC(C)C(=O)O)cc3Cl)nc3c(OC4(C)CC4)ncnc32)c1` (racemic) [Example T454, 4-(3-chloro-4-(9-(3-methoxybenzyl)-6-(1-methylcyclopropoxy)-9H-purin-8-yl)phenoxy)-2-methylbutanoic acid] yielded an IC50 [3] of 0.794 µM.

In the case of `Cc1ccnc(Cn2c(-c3ccc(N4CC5CC4CCN5)cc3Cl)nc3c(OC4(C)CC4)ncnc32)c1` (racemic) [Example T491, 8-(4-(2,6-diazabicyclo[3.2.1]octan-6-yl)-2-chlorophenyl)-6-(1-methylcyclopropoxy)-9-((4-methylpyridin-2-yl)methyl)-9H-purine], the IC50 [1] is reported as 0.501 µM.

`Cc1ccnc(Cn2c(-c3ccc(N4CCN5CCC4C5)cc3Cl)nc3c(OC4(C)CC4)ncnc32)c1` (racemic) [Example T493, 8-(4-(1,4-diazabicyclo[3.2.1]octan-4-yl)-2-chlorophenyl)-6-(1-methylcyclopropoxy)-9-((4-methylpyridin-2-yl)methyl)-9H-purine] showed an IC50 [1] of 0.251 µM.

With `Cc1ccc(C)c(Cn2c(-c3ccc(OCCC(C)C(=O)O)cc3Cl)nc3c(OC4(C)CC4)ncnc32)c1` (racemic) [Example T569, 4-(3-chloro-4-(9-(2,5-dimethylbenzyl)-6-(1-methylcyclopropoxy)-9H-purin-8-yl)phenoxy)-2-methylbutanoic acid] the IC50 [1] was 0.631 µM.

`Cc1cccc(Cn2c(-c3ccc(OCCC(C)C(=O)O)cc3Cl)nc3c(OC4(C)CC4)ncnc32)c1C` (racemic) [Example T570, 4-(3-chloro-4-(9-(2,3-dimethylbenzyl)-6-(1-methylcyclopropoxy)-9H-purin-8-yl)phenoxy)-2-methylbutanoic acid] gave an IC50 [1] of 0.398 µM.

Compound `CC(CCOc1ccc(-c2nc3c(OC4(C)CC4)ncnc3n2Cc2cccc(C3CC3)c2)c(Cl)c1)C(=O)O` (racemic) [Example T601, 4-(3-chloro-4-(9-(3-cyclopropylbenzyl)-6-(1-methylcyclopropoxy)-9H-purin-8-yl)phenoxy)-2-methylbutanoic acid] has an IC50 (DLD-1, first proliferation column, DLD-1 BRCA2-/-, read-out: POLQ PD Prolif Lumin (converted)) of 0.794 µM.

For `COc1c(Cl)cccc1Cn1c(-c2ccc(OCCC(C)C(=O)O)cc2Cl)nc2c(OC3(C)CC3)ncnc21` (racemic) [Example U3, 4-(3-chloro-4-(9-(3-chloro-2-methoxybenzyl)-6-(1-methylcyclopropoxy)-9H-purin-8-yl)phenoxy)-2-methylbutanoic acid], the IC50 [4] was 3.98 µM.

For `COc1ccccc1Cn1c(-c2ccc(OCCC(C)C(=O)O)cc2Cl)nc2c(OC3(C)CC3)ncnc21` (racemic) [Example U4, 4-(3-chloro-4-(9-(2-methoxybenzyl)-6-(1-methylcyclopropoxy)-9H-purin-8-yl)phenoxy)-2-methylbutanoic acid], the IC50 [4] was 0.251 µM.

Compound `CC(CCOc1ccc(-c2nc3c(OC4(C)CC4)ncnc3n2Cc2ccccc2F)c(Cl)c1)C(=O)O` (racemic) [Example U5, 4-(3-chloro-4-(9-(2-fluorobenzyl)-6-(1-methylcyclopropoxy)-9H-purin-8-yl)phenoxy)-2-methylbutanoic acid] has an IC50 [4] of 0.316 µM.

For `CC(CCOc1ccc(-c2nc3c(OC4(C)CC4)ncnc3n2Cc2cccc(F)c2)c(Cl)c1)C(=O)O` (racemic) [Example U6, 4-(3-chloro-4-(9-(3-fluorobenzyl)-6-(1-methylcyclopropoxy)-9H-purin-8-yl)phenoxy)-2-methylbutanoic acid], the IC50 [4] was 0.251 µM.

`CC(CCOc1ccc(-c2nc3c(OC4(C)CC4)ncnc3n2Cc2ccc(C#N)cc2)c(Cl)c1)C(=O)O` (racemic) [Example U7, 4-(3-chloro-4-(9-(4-cyanobenzyl)-6-(1-methylcyclopropoxy)-9H-purin-8-yl)phenoxy)-2-methylbutanoic acid] was tested, and the IC50 [4] was 2.51 µM.

`CC(CCCc1ccc(-c2nc3c(OC4(C)CC4)ncnc3n2Cc2ccccc2C#N)c(Cl)c1)C(=O)O` (racemic) [Example U12, 5-(3-chloro-4-(9-(2-cyanobenzyl)-6-(1-methylcyclopropoxy)-9H-purin-8-yl)phenyl)-2-methylpentanoic acid] gave an IC50 [4] of 0.398 µM.

In the case of `CC(CCOc1ccc(-c2nc3c(OC4(C)CC4)ncnc3n2Cc2cc(C#N)ccc2F)c(Cl)c1)C(=O)O` (racemic) [Example U18, 4-(3-chloro-4-(9-(5-cyano-2-fluorobenzyl)-6-(1-methylcyclopropoxy)-9H-purin-8-yl)phenoxy)-2-methylbutanoic acid], the IC50 [4] is reported as 0.398 µM.

For `CC(COc1ccc(-c2nc3c(OC4(C)CC4)ncnc3n2Cc2ccccc2C#N)c(Cl)c1)CC(=O)O` (racemic) [Example U25, 4-(3-chloro-4-(9-(2-cyanobenzyl)-6-(1-methylcyclopropoxy)-9H-purin-8-yl)phenoxy)-3-methylbutanoic acid], the IC50 [4] was 0.398 µM.
